Assay results reported in patent US20170190671A1, “BIS(ARYL)CATECHOL DERIVATIVES AS HERBICIDES” (E I DU PONT DE NEMOURS AND COMPANY, priority 2014, published 2017).
Values belong to the compound of their own block, whether it stands above or below them.

Columns and labels:
[1] = test system: ragweed (common ragweed, Ambrosia elatior); assay: Test A preemergence; format: in vivo; details: Ambrosia artemisiifolia, pre-emergence, 240 h, 0 to 100 scale (0 no effect, 100 complete control), read-out: Ragweed plant response rating; for pest or weed control at 31 g/ha: 31 g ai/ha; for pest or weed control at 125 g/ha: 125 g ai/ha
Procedure, shortened: (§1)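 Visual injury scored 0–100 (100 = complete control) against untreated controls about 10 days after treatment in a greenhouse. Test chemicals, formulated with surfactant in non-phytotoxic solvent, were sprayed on soil preemergence or on 2-10 cm, one- to two-leaf plants postemergence.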

[2] = test system: Italian ryegrass (Lolium multiflorum); assay: Test A preemergence; format: in vivo; details: Lolium multiflorum, pre-emergence, 240 h, 0 to 100 scale (0 no effect, 100 complete control), read-out: Ryegrass, Italian plant response rating; for pest or weed control at 31 g/ha: 31 g ai/ha; for pest or weed control at 125 g/ha: 125 g ai/ha
Procedure, shortened: as §1

[3] = test system: barnyardgrass (Echinochloa crus-galli); assay: Test A preemergence; format: in vivo; details: Echinochloa crus-galli, pre-emergence, 240 h; for pest or weed control at 31 g/ha: 31 g ai/ha, 0 to 100 scale (0 no effect, 100 complete control), read-out: Barnyardgrass plant response rating; for pest or weed control at 125 g/ha: 125 g ai/ha, 0 to 100 scale, read-out: Plant response rating, Barnyardgrass
Procedure, shortened: as §1

[4] = test system: giant foxtail (Setaria faberii); assay: Test A preemergence; format: in vivo; details: Setaria faberi, pre-emergence, 240 h, 0 to 100 scale (0 no effect, 100 complete control), read-out: Foxtail, Giant plant response rating; for pest or weed control at 31 g/ha: 31 g ai/ha; for pest or weed control at 125 g/ha: 125 g ai/ha
Procedure, shortened: as §1

kochia (Kochia scoparia) [5] = assay: Test A preemergence; format: in vivo; details: Bassia scoparia, pre-emergence, 240 h, 0 to 100 scale (0 no effect, 100 complete control), read-out: Kochia plant response rating; for pest or weed control at 31 g/ha: 31 g ai/ha; for pest or weed control at 125 g/ha: 125 g ai/ha
Procedure, shortened: as §1

[6] = test system: pigweed (Amaranthus retroflexus); assay: Test A preemergence; format: in vivo; details: Amaranthus retroflexus, pre-emergence, 240 h, 0 to 100 scale (0 no effect, 100 complete control), read-out: Pigweed plant response rating; for pest or weed control at 31 g/ha: 31 g ai/ha; for pest or weed control at 125 g/ha: 125 g ai/ha
Procedure, shortened: as §1

[7] = test system: ducksalad (Heteranthera limosa); assay: Test B flooded paddy; format: in vivo; details: Heteranthera limosa, 336 h; 250 g ai/ha, Flood, 13 to 15 days, scale 0 (no effect) to 100 (complete control); read-out: Plant response rating, Ducksalad
Procedure, shortened: (§2)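 Ratings were visual and made relative to untreated controls after 13 to 15 greenhouse days.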

rice (Oryza sativa) = assay: Test B flooded paddy; format: in vivo; details: Oryza sativa, 336 h; 250 g ai/ha, Flood, 13 to 15 days, scale 0 (no effect) to 100 (complete control); read-out: Plant response rating, Rice
Procedure, shortened: as §2

[8] = test system: barnyardgrass (Echinochloa crus-galli); assay: Test B flooded paddy; format: in vivo; details: Echinochloa crus-galli, 336 h; 250 g ai/ha, Flood, 13 to 15 days, scale 0 (no effect) to 100 (complete control); read-out: Plant response rating, Barnyardgrass
Procedure, shortened: as §2

[9] = test system: sedge, umbrella (small-flower umbrella sedge, Cyperus difformis); assay: Test B flooded paddy; format: in vivo; details: Cyperus difformis, 336 h; 250 g ai/ha, Flood, 13 to 15 days, scale 0 (no effect) to 100 (complete control); read-out: Plant response rating, Sedge, Umbrella
Procedure, shortened: as §2

kochia (Kochia scoparia) [10] = assay: Test C postemergence; format: in vivo; details: Bassia scoparia, post-emergence, Postemergence, scale 0 to 100, read-out: Plant response rating, Kochia; for pest or weed control at 16 g/ha: 16 g ai/ha; for pest or weed control at 31 g/ha: 31 g ai/ha; for pest or weed control at 62 g/ha: 62 g ai/ha; for pest or weed control at 125 g/ha: 125 g ai/ha
[11] = test system: pigweed (Amaranthus retroflexus); assay: Test C postemergence; format: in vivo; details: Amaranthus retroflexus, post-emergence, 336 h, Postemergence, scale 0 to 100, read-out: Plant response rating, Pigweed; for pest or weed control at 31 g/ha: 31 g ai/ha; for pest or weed control at 62 g/ha: 62 g ai/ha; for pest or weed control at 125 g/ha: 125 g ai/ha
[12] = test system: ragweed (common ragweed, Ambrosia elatior); assay: Test A postemergence; format: in vivo; details: Ambrosia artemisiifolia, post-emergence, 240 h, 0 to 100 scale, read-out: Plant response rating, Ragweed; for pest or weed control at 31 g/ha: 31 g ai/ha; for pest or weed control at 125 g/ha: 125 g ai/ha
Procedure, shortened: as §1

[13] = test system: Italian ryegrass (Lolium multiflorum); assay: Test A postemergence; format: in vivo; details: Lolium multiflorum, post-emergence, 240 h, 0 to 100 scale, read-out: Plant response rating, Ryegrass, Italian; for pest or weed control at 31 g/ha: 31 g ai/ha; for pest or weed control at 125 g/ha: 125 g ai/ha
Procedure, shortened: as §1

[14] = test system: barnyardgrass (Echinochloa crus-galli); assay: Test A postemergence; format: in vivo; details: Echinochloa crus-galli, post-emergence, 240 h, 0 to 100 scale, read-out: Plant response rating, Barnyardgrass; for pest or weed control at 31 g/ha: 31 g ai/ha; for pest or weed control at 125 g/ha: 125 g ai/ha
Procedure, shortened: as §1

[15] = test system: giant foxtail (Setaria faberii); assay: Test A postemergence; format: in vivo; details: Setaria faberi, post-emergence, 240 h, 0 to 100 scale, read-out: Plant response rating, Foxtail, Giant; for pest or weed control at 31 g/ha: 31 g ai/ha; for pest or weed control at 125 g/ha: 125 g ai/ha
Procedure, shortened: as §1

kochia (Kochia scoparia) [16] = assay: Test A postemergence; format: in vivo; details: Bassia scoparia, post-emergence, 240 h, 0 to 100 scale, read-out: Plant response rating, Kochia; for pest or weed control at 31 g/ha: 31 g ai/ha; for pest or weed control at 125 g/ha: 125 g ai/ha
Procedure, shortened: as §1

[17] = test system: pigweed (Amaranthus retroflexus); assay: Test A postemergence; format: in vivo; details: Amaranthus retroflexus, post-emergence, 240 h, 0 to 100 scale, read-out: Plant response rating, Pigweed; for pest or weed control at 31 g/ha: 31 g ai/ha; for pest or weed control at 125 g/ha: 125 g ai/ha
Procedure, shortened: as §1

corn (Zea mays) = assay: Test A postemergence; format: in vivo; details: Zea mays, post-emergence, 240 h, 0 to 100 scale; for Corn plant response rating (crop injury, 0 = no effect, 100 = complete kill) at 31 g/ha: 31 g ai/ha; for Corn plant response rating (crop injury, 0 = no effect, 100 = complete kill) at 125 g/ha: 125 g ai/ha
Procedure, shortened: as §1

[18] = test system: galium (catchweed bedstraw, Galium aparine); assay: Test A postemergence; format: in vivo; details: Galium, post-emergence, 240 h, 0 to 100 scale, read-out: Plant response rating, Galium; for pest or weed control at 31 g/ha: 31 g ai/ha; for pest or weed control at 125 g/ha: 125 g ai/ha
Procedure, shortened: as §1

[19] = test system: wheat (Triticum aestivum); assay: Test A postemergence; format: in vivo; details: Triticum aestivum, post-emergence, 240 h, 0 to 100 scale, read-out: Plant response rating, Wheat; for plant injury at 31 g/ha: 31 g ai/ha; for plant injury at 125 g/ha: 125 g ai/ha
Procedure, shortened: as §1

[20] = test system: blackgrass (Alopecurus myosuroides); assay: Test A postemergence; format: in vivo; details: Alopecurus myosuroides, post-emergence, 240 h, 0 to 100 scale, read-out: Plant response rating, Blackgrass; for pest or weed control at 31 g/ha: 31 g ai/ha; for pest or weed control at 125 g/ha: 125 g ai/ha
Procedure, shortened: as §1

melting point: 158 to 161 °C
SMILES: Fc1cnc(Oc2c(F)ccc(F)c2Oc2ncc(F)cn2)nc1 [Compound 29, 2,2′-[(3,6-difluoro-1,2-phenylene)bis(oxy)]bis[5-fluoropyrimidine]]
pest or weed control at 31 g/ha [1]: 0%
pest or weed control at 125 g/ha [1]: 90%
pest or weed control at 31 g/ha [2]: 0%
pest or weed control at 125 g/ha [2]: 30%
pest or weed control at 31 g/ha [3]: 10%
pest or weed control at 125 g/ha [3]: 100%
pest or weed control at 31 g/ha [4]: 80%
pest or weed control at 125 g/ha [4]: 100%
pest or weed control at 31 g/ha (kochia (Kochia scoparia) [5]): 80%
pest or weed control at 125 g/ha (kochia (Kochia scoparia) [5]): 100%
pest or weed control at 31 g/ha [6]: 100%
pest or weed control at 125 g/ha [6]: 100%
pest or weed control at 250 g/ha [7]: 90%
plant injury at 250 g/ha (rice (Oryza sativa)): 85%
pest or weed control at 250 g/ha [8]: 90%
pest or weed control at 250 g/ha [9]: 75%
pest or weed control at 16 g/ha (kochia (Kochia scoparia) [10]): 80%
pest or weed control at 31 g/ha (kochia (Kochia scoparia) [10]): 90%
pest or weed control at 62 g/ha (kochia (Kochia scoparia) [10]): 90%
pest or weed control at 125 g/ha (kochia (Kochia scoparia) [10]): 95%
pest or weed control at 31 g/ha [11]: 90%
pest or weed control at 62 g/ha [11]: 95%
pest or weed control at 125 g/ha [11]: 90%
pest or weed control at 31 g/ha [12]: 40%
pest or weed control at 125 g/ha [12]: 60%
pest or weed control at 31 g/ha [13]: 20%
pest or weed control at 125 g/ha [13]: 20%
pest or weed control at 31 g/ha [14]: 20%
pest or weed control at 125 g/ha [14]: 80%
pest or weed control at 31 g/ha [15]: 30%
pest or weed control at 125 g/ha [15]: 60%
pest or weed control at 31 g/ha (kochia (Kochia scoparia) [16]): 80%
pest or weed control at 125 g/ha (kochia (Kochia scoparia) [16]): 100%
pest or weed control at 31 g/ha [17]: 90%
pest or weed control at 125 g/ha [17]: 90%
Corn plant response rating (crop injury, 0 = no effect, 100 = complete kill) at 31 g/ha (corn (Zea mays)): 20%
Corn plant response rating (crop injury, 0 = no effect, 100 = complete kill) at 125 g/ha (corn (Zea mays)): 90%
pest or weed control at 31 g/ha [18]: 100%
pest or weed control at 125 g/ha [18]: 100%
plant injury at 31 g/ha [19]: 30%
plant injury at 125 g/ha [19]: 80%
pest or weed control at 31 g/ha [20]: 80%
pest or weed control at 125 g/ha [20]: 90%

melting point: 158 to 161 °C
SMILES: Fc1ccc(F)c(Oc2ncc(Cl)cn2)c1Oc1ncc(Cl)cn1 [Compound 34, 2,2′-[(3,6-difluoro-1,2-phenylene)bis(oxy)]bis[5-chloropyrimidine]]
pest or weed control at 31 g/ha [1]: 0%
pest or weed control at 125 g/ha [1]: 10%
pest or weed control at 31 g/ha [2]: 0%
pest or weed control at 125 g/ha [2]: 50%
pest or weed control at 31 g/ha [3]: 10%
pest or weed control at 125 g/ha [3]: 80%
pest or weed control at 31 g/ha [4]: 70%
pest or weed control at 125 g/ha [4]: 90%
pest or weed control at 31 g/ha (kochia (Kochia scoparia) [5]): 80%
pest or weed control at 125 g/ha (kochia (Kochia scoparia) [5]): 90%
pest or weed control at 31 g/ha [6]: 100%
pest or weed control at 125 g/ha [6]: 100%
pest or weed control at 250 g/ha [7]: 30%
plant injury at 250 g/ha (rice (Oryza sativa)): 0%
pest or weed control at 250 g/ha [8]: 0%
pest or weed control at 250 g/ha [9]: 30%
pest or weed control at 16 g/ha (kochia (Kochia scoparia) [10]): 60%
pest or weed control at 31 g/ha (kochia (Kochia scoparia) [10]): 60%
pest or weed control at 62 g/ha (kochia (Kochia scoparia) [10]): 90%
pest or weed control at 125 g/ha (kochia (Kochia scoparia) [10]): 90%
pest or weed control at 31 g/ha [11]: 80%
pest or weed control at 62 g/ha [11]: 90%
pest or weed control at 125 g/ha [11]: 90%
pest or weed control at 31 g/ha [12]: 30%
pest or weed control at 125 g/ha [12]: 50%
pest or weed control at 31 g/ha [13]: 10%
pest or weed control at 125 g/ha [13]: 50%
pest or weed control at 31 g/ha [14]: 0%
pest or weed control at 125 g/ha [14]: 50%
pest or weed control at 31 g/ha [15]: 30%
pest or weed control at 125 g/ha [15]: 70%
pest or weed control at 31 g/ha (kochia (Kochia scoparia) [16]): 50%
pest or weed control at 125 g/ha (kochia (Kochia scoparia) [16]): 70%
pest or weed control at 31 g/ha [17]: 70%
pest or weed control at 125 g/ha [17]: 80%
Corn plant response rating (crop injury, 0 = no effect, 100 = complete kill) at 31 g/ha (corn (Zea mays)): 0%
Corn plant response rating (crop injury, 0 = no effect, 100 = complete kill) at 125 g/ha (corn (Zea mays)): 10%
pest or weed control at 31 g/ha [18]: 80%
pest or weed control at 125 g/ha [18]: 90%
plant injury at 31 g/ha [19]: 0%
plant injury at 125 g/ha [19]: 30%
pest or weed control at 31 g/ha [20]: 60%
pest or weed control at 125 g/ha [20]: 70%
